Reference: publication PMC6385118, “Korean Thistle (Cirsium japonicum var. maackii (Maxim.) Matsum.): A Potential Dietary Supplement against Diabetes and Alzheimer’s Disease” (Molecules, 2019)
Where two headings read alike, the source gives them in different places.

How the values were obtained:
[1] = DPPH radical scavenging activity; settings: for DPPH Inhibition (%), Mean ± SD: at 5 µM; for EC50: mean ± SD of triplicates
Procedure: DPPH radical scavenging activity were carried out using procedures previously described with slight modifications. Shortly, 160 µL of sample solutions/positive control (ascorbic acid) were mixed with 40 µL of DPPH solution and incubated at room temperature for 30 min. After that, absornace were measured at 520 nm using a microplate reader spectrophotometer VERSAmax (Molecular Devices).

[2] = Pro-oxidant assay (reducing power); settings: ascorbic acid as positive control; Figure 3
Procedure: The pro-oxidant activity of isolated compounds were assessed with slight modifications. Shortly, 250 µL of sample solutions/positive control (ascorbic acid) dissolved in 0.2 M phosphate buffer (pH 6.6) and 25 µL of 1% potassium ferricyanide […] were incubated at 50 °C for 20 min. After that, an equal volume of 10% trichloroacetic acid was added and then centriguged at 3000 g for 10 min. The supernatant (500 µL) and distilled water (500 µL) was mixed followed by addition of 0.1% ferric chloride (0.1 mL). Immediately, absorbance were measured spectrophotometrically at 700 nm.

human recombinant PTP1B = target: T1, human recombinant PTP1B (Homo sapiens, UniProt P18031); assay: In vitro PTP1B inhibitory activity assay (p-NPP substrate); format: biochemical; settings: mean ± SD of triplicates
T1 construct: purchased Biomol International, LLP (Plymouth Meeting, PA, USA)
T1 sequence (P18031 1-435): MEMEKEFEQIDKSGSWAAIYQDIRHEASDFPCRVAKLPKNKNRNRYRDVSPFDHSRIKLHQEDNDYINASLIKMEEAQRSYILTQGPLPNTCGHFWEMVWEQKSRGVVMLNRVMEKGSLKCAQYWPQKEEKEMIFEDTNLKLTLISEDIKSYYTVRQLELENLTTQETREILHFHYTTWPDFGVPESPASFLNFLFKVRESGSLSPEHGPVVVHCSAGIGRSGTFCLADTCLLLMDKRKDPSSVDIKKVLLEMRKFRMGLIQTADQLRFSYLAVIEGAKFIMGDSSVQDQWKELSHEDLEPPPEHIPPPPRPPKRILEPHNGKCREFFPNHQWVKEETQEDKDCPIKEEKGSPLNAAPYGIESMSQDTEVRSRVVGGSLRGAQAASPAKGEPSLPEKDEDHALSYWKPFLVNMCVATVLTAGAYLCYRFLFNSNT
Procedure: The inhibitory activity of the isolated compounds against human recombinant PTP1B was evaluated using p-NPP as a substrate with slight modifications. […] After incubation, the reaction was ceased using 10 µL of stop solution (10 mM sodium hydroxide) and absorbance was measured at 405 nm.

yeast α-glucosidase = assay: In vitro α-glucosidase inhibitory activity assay (p-NPG substrate); format: biochemical; settings: for Ki: Dixon plot; for type of α-glucosidase inhibition (in words): Lineweaver-Burk and Dixon plots; for α-Glucosidase Inhibition (%), Mean ± SD: at 100 µM; for IC50: mean ± SD of triplicates
Procedure: The inhibitory activity against yeast α-glucosidase enzyme was carried out spectrophotometrically in a 96-well micro-plate reader (Molecular Devices, Sunnyvale, CA, USA), using a procedure reported by Li et al. with slight modifications. […] After 15 min of incubation, the reaction was ceased using 80 µL of stop solution (0.2 M sodium carbonate) and absorbance was measured at 405 nm.
(§1) The inhibition constant (Ki) and inhibition mode of α-glucosidase and BACE1 were calculated with Lineweaver-Burk and Dixon plots. […] Each graph was generated using SigmaPlot 12.0 (Systat Software Inc., San Jose, CA, USA) and GraphPad Prism 5 (GraphPad Prism Software, Inc., La Jolla, CA, USA).

[3] = Peroxynitrite (ONOO−) scavenging activity; settings: for ONOO− Inhibition (%), Mean ± SD: at 5 µM; for EC50: mean ± SD of triplicates
Procedure: Peroxynitrite (ONOO^−) scavenging activity was carried ou with slight modifications. Shortly, 10 µL of sample solutions/positive control (penicillamine) were mixed with rhodamine buffer (pH 7.4) containing 50 mM sodium phosphate dibasic, 50 mM sodium phosphate monobasic, 90 mM sodium chloride, 5 mM potassium chloride, and 100 μM DTPA. The final DHR 123 concentration was 5 µM. The fluorescent intensities were measured after 5 min with/without authentic ONOO^− using a fluorescence microplate reader (Spectramax Gemini XPS, Molecular Devices) at wavelenghts of 485 and 530 nm of excitation and emission, respectively.

BACE1 = target: T2, BACE1 (Homo sapiens, UniProt P56817); assay: In vitro BACE1 enzyme assay (FRET kit); format: biochemical
T2 construct: purchased PanVera Corp. (Madison, WI, USA)
Procedure: Each assay was carried out according to the supplied instructions provided by the manufacturer with slight modifications. […] After incubation, the reaction was ceased using 10 µL of BACE1 stop solution and absorbance was measured at 545 nm […] and 585 nm (emission) wavelengths using microplate spectrofluorometer (Spectramax Gemini XPS, Molecular Devices).
as §1

α-glucosidase = settings: cited from earlier work
[4] = read-out: BACE1 Inhibition (%), Mean ± SD

T2 sequence (P56817 46-501): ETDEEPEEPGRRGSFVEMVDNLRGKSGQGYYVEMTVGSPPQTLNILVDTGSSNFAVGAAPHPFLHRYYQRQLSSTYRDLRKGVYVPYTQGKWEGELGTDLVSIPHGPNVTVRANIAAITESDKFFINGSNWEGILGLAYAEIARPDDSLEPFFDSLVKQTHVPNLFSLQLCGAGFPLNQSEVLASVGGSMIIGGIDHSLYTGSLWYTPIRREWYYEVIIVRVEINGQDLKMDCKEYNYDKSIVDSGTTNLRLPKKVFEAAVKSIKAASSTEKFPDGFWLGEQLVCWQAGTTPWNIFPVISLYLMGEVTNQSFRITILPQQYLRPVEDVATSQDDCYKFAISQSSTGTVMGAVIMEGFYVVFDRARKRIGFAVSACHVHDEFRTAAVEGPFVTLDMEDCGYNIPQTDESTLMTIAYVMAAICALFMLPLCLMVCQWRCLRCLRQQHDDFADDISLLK

SMILES	DPPH Inhibition (%), Mean ± SD [1] [%]	EC50 [1] [µM]	reducing power (pro-oxidant activity) [2]	IC50 (human recombinant PTP1B) [µM]	Ki (yeast α-glucosidase) [µM]	type of α-glucosidase inhibition (in words) (yeast α-glucosidase)	α-Glucosidase Inhibition (%), Mean ± SD (yeast α-glucosidase) [%]	IC50 (yeast α-glucosidase) [µM]	ONOO− Inhibition (%), Mean ± SD [3] [%]	EC50 [3] [µM]	other results
O=C1O[C@H]([C@@H](O)CO)C(O)=C1O [Ascorbic acid, ascorbic acid, reference compound]	18.72 ± 0.44	21.35 ± 0.09	–	–	–	–	–	–	–	–	–
O=c1cc(-c2ccc(O)c(O)c2)oc2cc(O)cc(O[C@@H]3O[C@H](CO)[C@@H](O)[C@H](O)[C@H]3O)c12 [Luteolin 5-O-β-D-glucopyranoside, luteolin 5-O-β-D-glucopyranoside]	52.43 ± 0.53	4.76 ± 0.05	higher reducing power	> 400	272	mixed type of inhibition	14.02 ± 1.45	270 ± 4.69	79.23 ± 4.95	0.5 ± 0.03	inhibition at 100 µM (BACE1; at 100 µM, read-out: BACE1 Inhibition (%), Mean ± SD): 17.5 ± 1.65%; IC50 (BACE1; mean ± SD of triplicates): 970 ± 7.83 µM
O=c1cc(-c2ccc(O)c(O)c2)oc2cc(O[C@@H]3O[C@H](CO)[C@@H](O)[C@H](O)[C@H]3O)cc(O)c12 [Luteolin 7-O-β-D-glucopyranoside, luteolin 7-O-β-D-glucopyranoside]	58.97 ± 1.95	4.79 ± 0.19	–	> 400	251	competitive inhibition	25.53 ± 1.21	249 ± 2.56	80.23 ± 4.22	2.51 ± 0.05	–
O=c1cc(-c2ccc(O)c(O)c2)oc2cc(O)cc(O)c12 [Luteolin, luteolin]	76.65 ± 0.73	3.05 ± 0.06	lower reducing power than positive control ascorbic acid	> 400	52	non-competitive	69.12 ± 1.20	51.3 ± 1.23	85.21 ± 1.61	0.86 ± 0.04	potency against α-glucosidase compared with the positive control, acarbose (yeast α-glucosidase; ratio of IC50 values): five-fold more potent; α-glucosidase inhibition percentage (α-glucosidase; at 200 µM, mixed type (close to non-competitive), ref Tadera et al. [31]): 92%; α-glucosidase inhibition (α-glucosidase; at a concentration of 0.5 mg/mL, ref Kim et al. [32]): 36%; IC50 (α-glucosidase; mixed type inhibition, ref Xu et al. [35]): 18.6 µM; IC50 (α-glucosidase; non-competitive inhibition, ref Ha et al. [28]): 45.4 µM; IC50 (α-glucosidase; ref Proença et al. [34]): 46 ± 6 µM; IC50 (α-glucosidase; reversible, non-competitive, ref Yan et al. [29]): 172 µM; type of BACE1 inhibition (in words) (BACE1; Lineweaver-Burk and Dixon plots): non-competitive; inhibition at 100 µM (BACE1; [4]): 73.73 ± 0.57%
CC(C)(S)[C@@H](N)C(=O)O [Penicillamine, penicillamine, reference compound]	–	–	–	–	–	–	–	–	56.57 ± 2.03	2.28 ± 0.02	–
O=c1c(O)c(-c2ccc(O)c(O)c2)oc2cc(O)cc(O)c12 [Quercetin, quercetin, reference compound]	–	–	–	–	–	–	–	–	–	–	inhibition at 4.5 µg/mL (BACE1; [4]): 70 ± 3.91%; inhibition at 10 µM (BACE1; [4]): 67.6 ± 4.1%
